Results on twelve compounds are retold here after ChEMBL document CHEMBL1201862, “PubChem BioAssay data set” (2004).

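In this assay, cells in 96-well plates receive the compound at five concentrations for 48 hours. Endpoints are linearly interpolated between the surrounding concentrations. Here, GI50 denotes the concentration required for 50% inhibition of growth.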 The source made the active and inactive calls. No stated cut-off is given here; in the data, active = GI50 up to about 1.1 µM and inactive = higher. A value given as a limit tells only on which side of the number the result lay.

Test systems include RPMI-8226; SNB-75; SR; OVCAR-8; COLO 205; NCI-H522; HL-60; NCI-H226; IGROV-1; HCT-116; CCRF-CEM; SNB-19; MOLT-4; SK-MEL-28; HCT-15; UACC-257; DU-145; MDA-MB-435; SK-MEL-5.
Common to all, as to assay: growth of human tumour cells (NCI), 48 h

In the case of `Cn1c(=O)n(CC2CS2)c2ccccc21` (centres undefined), the GI50 is > 100 µM (inactive) in the test with RPMI-8226; > 100 µM (inactive) in the test on SNB-75; 99.3 µM (inactive) with SR; > 10 µM (inactive) in the test with OVCAR-8; > 100 µM (inactive) in the test with COLO 205; > 100 µM (inactive) with NCI-H522. The GI50 with HL-60 is 71.6 µM (inactive); in the test with NCI-H226, > 100 µM (inactive); in the test on IGROV-1, > 100 µM (inactive); in the test on HCT-116, > 100 µM (inactive); with CCRF-CEM, 70 µM (inactive); with SNB-19 it was > 100 µM (inactive). Further, the GI50 in the test with MOLT-4 is 88.1 µM (inactive); with SK-MEL-28 it was > 100 µM (inactive); in the test on HCT-15 it was above 100 µM.

`CC(C)(C)[Si](C)(C)OCC1OC(n2cnc3c(N)ncnc32)C2OC(=S)OC12` (centres undefined): the GI50 in the test on UACC-257 is 43.3 µM (inactive); in the test on RPMI-8226, 37.9 µM (inactive); in the test on SNB-75, 29.3 µM (inactive); with SR, 38.5 µM (inactive); with OVCAR-8 it was 35.1 µM (inactive); in the test with COLO 205 it was 35.6 µM (inactive). Besides, the GI50 in the test with HL-60 is > 100 µM (inactive); with NCI-H226, 29.4 µM (inactive); with IGROV-1, 25 µM (inactive); with HCT-116 it was 27.4 µM (inactive); in the test on CCRF-CEM, 12.7 µM (inactive); with DU-145, 25.1 µM (inactive). Also, the GI50 in the test with SNB-19 is 52.1 µM (inactive); with MOLT-4 it was 16.1 µM (inactive); in the test with SK-MEL-28, 38.4 µM (inactive); in the test on HCT-15, 26.2 µM; in the test with MDA-MB-435, 19.9 µM (inactive); with SK-MEL-5, 17 µM (inactive).

Take `CC1(n2nc(-c3ccccc3)n(-c3ccccc3)c2=O)CSC1`: the GI50 with UACC-257, with RPMI-8226, in the test with SNB-75, with SR, in the test with OVCAR-8 and in the test on COLO 205 was > 100 µM (inactive) in each case. Moreover, the GI50 in the test with NCI-H522, in the test with HL-60, in the test with NCI-H226, in the test with IGROV-1, in the test on HCT-116 and with CCRF-CEM was > 100 µM (inactive) throughout. The GI50 is > 100 µM (inactive) in the test with SNB-19; > 100 µM (inactive) in the test with MOLT-4; > 100 µM (inactive) in the test with SK-MEL-28; above 100 µM with HCT-15; > 100 µM (inactive) with SK-MEL-5.

Turning to `CCOC(=O)c1c(-c2ccccc2)c(-c2ccccc2)cn1C`, the GI50 in the test with UACC-257 was > 10 µM (inactive); in the test on SNB-75 it was > 10 µM (inactive); in the test with SR, 3.51 µM (inactive); with OVCAR-8 it was > 10 µM (inactive); in the test on NCI-H522, > 10 µM (inactive); in the test with HL-60 it was > 10 µM (inactive). In addition, the GI50 with NCI-H226 was > 10 µM (inactive); with IGROV-1, > 10 µM (inactive); in the test with CCRF-CEM, > 10 µM (inactive); with DU-145 it was 8.95 µM (inactive); in the test on SNB-19 it was > 10 µM (inactive); in the test with MOLT-4, > 10 µM (inactive). In addition, the GI50 was above 10 µM in the test with HCT-15 and > 10 µM (inactive) in the test with MDA-MB-435.

As for `O=CC1CCCc2ccccc21` (centres undefined), the GI50 was > 74.3 µM (inactive) in the test on UACC-257; > 43.1 µM (inactive) in the test on RPMI-8226; > 100 µM (inactive) with SNB-75; > 100 µM (inactive) in the test with SR; > 100 µM (inactive) with OVCAR-8; > 42.7 µM (inactive) in the test on COLO 205. Besides, the GI50 is > 79.6 µM (inactive) in the test on NCI-H522; > 63 µM (inactive) in the test on HL-60; > 100 µM (inactive) with NCI-H226; > 100 µM (inactive) with IGROV-1; > 50.1 µM (inactive) in the test on HCT-116; > 49.7 µM (inactive) in the test on CCRF-CEM. Besides, the GI50 in the test on SNB-19 is > 100 µM (inactive); in the test on MOLT-4 it was > 100 µM (inactive); in the test with SK-MEL-28, > 100 µM (inactive); in the test on HCT-15, above 51.5 µM; in the test on SK-MEL-5, > 100 µM (inactive).

As to `O=C1CCC(=O)c2cc(Br)ccc2N1`, the GI50 is > 100 µM (inactive) in the test on UACC-257; > 67.5 µM (inactive) in the test on RPMI-8226; > 100 µM (inactive) in the test on SNB-75; 26.4 µM (inactive) in the test with SR; > 100 µM (inactive) in the test on OVCAR-8; > 100 µM (inactive) in the test on COLO 205. Also, the GI50 in the test on NCI-H522 is > 100 µM (inactive); in the test with HL-60 it was > 100 µM (inactive); with NCI-H226 it was > 100 µM (inactive); with IGROV-1, > 100 µM (inactive); with HCT-116 it was > 40.8 µM (inactive); in the test with CCRF-CEM it was > 68.9 µM (inactive). Besides, the GI50 with SNB-19 is > 100 µM (inactive); with MOLT-4, > 100 µM (inactive); in the test on SK-MEL-28 it was > 100 µM (inactive); with HCT-15, above 100 µM; with SK-MEL-5, > 100 µM (inactive).

Turning to `Nc1c(C(=O)c2ccccc2)nnc2ccccc12`, the GI50 in the test on UACC-257 is 28.2 µM (inactive); in the test on RPMI-8226, 33.7 µM (inactive); in the test with SR, 38.4 µM (inactive); in the test on OVCAR-8 it was 33.7 µM (inactive); with COLO 205, 18.5 µM (inactive); in the test with HL-60, < 0.01 µM (active). Moreover, the GI50 with NCI-H226 was 30.4 µM (inactive); with IGROV-1 it was 26.6 µM (inactive); in the test on HCT-116 it was 24.6 µM (inactive); with DU-145 it was 23.4 µM (inactive); in the test on SNB-19, 37.9 µM (inactive); in the test with MOLT-4 it was 36.1 µM (inactive). Besides, the GI50 with SK-MEL-28 was 43.9 µM (inactive); in the test with HCT-15, 30.1 µM; with MDA-MB-435, 21.9 µM (inactive); with SK-MEL-5, 16.7 µM (inactive).

For `Cc1ccc2c(c1CCCC(C)(C)O)C(=O)C(O)=C(C(C)C)C2=O`, the GI50 is 39.1 µM (inactive) in the test with RPMI-8226; > 100 µM (inactive) in the test on SNB-75; 41.2 µM (inactive) with SR; 62.5 µM (inactive) in the test on OVCAR-8; > 100 µM (inactive) in the test on COLO 205; > 100 µM (inactive) in the test on NCI-H522. The GI50 is 46.6 µM (inactive) with HL-60; > 100 µM (inactive) in the test with NCI-H226; 90.4 µM (inactive) in the test on IGROV-1; 60.5 µM (inactive) in the test with HCT-116; 32.2 µM (inactive) in the test on CCRF-CEM; > 100 µM (inactive) with SNB-19. In addition, the GI50 in the test on MOLT-4 is 60.1 µM (inactive); in the test on SK-MEL-28 it was > 100 µM (inactive); with HCT-15, 41.9 µM; in the test on SK-MEL-5, > 100 µM (inactive).

For the compound `O=C(Nc1ccccc1)C(=O)C(C(=O)c1ccccc1F)C1OC(=O)c2ccccc21` (centres undefined), the GI50 in the test on UACC-257 was 66.5 µM (inactive); with RPMI-8226, 35.1 µM (inactive); in the test on SNB-75, 21.1 µM (inactive); with SR it was 21.5 µM (inactive); in the test with OVCAR-8 it was 19.5 µM (inactive); with COLO 205, 22.4 µM (inactive). Moreover, the GI50 was 21.5 µM (inactive) in the test with NCI-H522; 24.4 µM (inactive) with HL-60; 25.1 µM (inactive) in the test on NCI-H226; 71.4 µM (inactive) with IGROV-1; 18.9 µM (inactive) in the test on HCT-116; 29.5 µM (inactive) in the test with CCRF-CEM. Moreover, the GI50 in the test with SNB-19 is 27.5 µM (inactive); in the test on MOLT-4 it was 28.4 µM (inactive); with SK-MEL-28 it was 40.6 µM (inactive); in the test with HCT-15, 22.9 µM; with SK-MEL-5 it was 71.8 µM (inactive).

As to `CCOC(=O)CC(=O)ON(C)C(=O)Cc1ccccc1`, the GI50 in the test with UACC-257, in the test with RPMI-8226, in the test with SR, with OVCAR-8, in the test with COLO 205 and in the test with NCI-H522 was > 100 µM (inactive) throughout. For the same compound, the GI50 in the test with HL-60, with NCI-H226, with IGROV-1, with HCT-116, with CCRF-CEM and with SNB-19 was > 100 µM (inactive) each time. Moreover, the GI50 in the test on HCT-15 is above 100 µM; in the test with SK-MEL-5, > 100 µM (inactive).

In the case of `CCOC(OC1=C(C#N)CCCC1)C(CC)[Se]c1ccccc1[N+](=O)[O-]` (centres undefined), the GI50 with UACC-257 was > 100 µM (inactive); in the test with RPMI-8226 it was 19.5 µM (inactive); in the test with SNB-75, 21.9 µM (inactive); in the test with SR, 16.7 µM (inactive); in the test on OVCAR-8 it was 24 µM (inactive); in the test with COLO 205 it was 29.6 µM (inactive). Also, the GI50 in the test on NCI-H522 was 16.3 µM (inactive); with HL-60, 17.1 µM (inactive); in the test on NCI-H226, 17.7 µM (inactive); with IGROV-1 it was 23.9 µM (inactive); in the test on HCT-116 it was 19.4 µM (inactive); with CCRF-CEM, 20.6 µM (inactive). In addition, the GI50 in the test on SNB-19 was 29 µM (inactive); in the test with MOLT-4, 25.6 µM (inactive); in the test with SK-MEL-28, 34 µM (inactive); with HCT-15, 18.5 µM; with SK-MEL-5 it was 15.1 µM (inactive).

`Cc1cc(O)nc(NNC(C#N)c2cccc(O)c2)n1` (centres undefined): the GI50 with UACC-257, with RPMI-8226, in the test with SNB-75, with SR, in the test on OVCAR-8 and with COLO 205 was > 100 µM (inactive) in each case. The GI50 with NCI-H522, in the test with HL-60, in the test on NCI-H226, with IGROV-1, with HCT-116 and in the test with CCRF-CEM was > 100 µM (inactive) in each case. Besides, the GI50 is > 100 µM (inactive) in the test on MOLT-4, > 100 µM (inactive) in the test on SK-MEL-28, above 100 µM in the test with HCT-15 and > 100 µM (inactive) with SK-MEL-5.
